Drawing on patent US20070027178A1, “Substituted tetrahydro-1H-pyrido[4,3-b]indoles as serotonin receptors agonists and antagonists” (Bristol-Myers Squibb Company, priority 2005, published 2007), this text covers melting point for two compounds.

One may read the melting point as the temperature, or range, at which the solid turns liquid.

Regarding `Cc1cc(C(F)(F)F)c2[nH]c3c(c2c1)CNCC3.Cl`, the melting point fell in the range of 338 to 342 °C.
`COc1cc(C(F)(F)F)c2[nH]c3c(c2c1)CNCC3` [Example 23, 8-Methoxy-6-(trifluoromethyl)-2,3,4,5-tetrahydro-1H-pyrido [4,3-b]indole]: the melting point lay within 140 to 144 °C.
